Test results published in patent publication US20240307374A1, “FORMULATION OF FURIN INHIBITOR FOR INHALATION” (BP ASSET V, INC., priority 2021, published 2024).
Structures can show the parent of a compound that is named as a salt. Marks after values point to notes of the source that are not given here.

Assays:
Type in all cases: physicochemical
[1] = DVS (dynamic vapor sorption) moisture uptake; details: for Moisture Uptake (DVS): 25° C.; for form change after DVS test (XRPD): XRPD before and after DVS
Protocol: (FIG. 5). Sample weight decreased rapidly when humidity decreased from 10% to 0%, which might be caused by loss of crystalline water.
DVS was measured via a SMS (Surface Measurement Systems) DVS Intrinsic.

[2] = Equilibrium solubility in pH buffers (pH 4.0-6.0) with pH adjustment; details: for S: solubility: with pH adjustment; for pH before adjustment (in brackets): 24 hours
Protocol: In details, ˜5 mg of solids were suspended into 1 mL of each medium with dosing conc. at ˜5 mg/mL. Additional solids were added into the sample to generate suspension if clear solution was obtained. The suspension was equilibrated via stirring (1000 rpm) for 24 hours. The pH of the suspension was adjusted when the final pH shifted above 0.3, and the samples were stirred for another 1.5 hours after pH adjustment. The suspension was centrifuged to obtain precipitate and supernatants. Solubility, purity and pH were tested for the supernatants after filtration, and isolated precipitate was tested by XRPD.
(§1) • 1. pH=3.0 buffer (50 mM HCl+KCl): Weigh 365.39 mg KCl into a 100 mL volumetric flask (VF), and add 0.1 mL 1M HCl into the VF, and dilute to volume with water. • 2. pH=4.0 buffer (50 mM citrate): Weigh 56.74 mg citric acid and 60.18 mg trisodium citrate into a 10 mL volumetric flask, and dilute to volume with water. • 3. pH=5.0 buffer (50 mM citrate) Weigh 11.12 mg citric acid and 95.38 mg trisodium citrate into a 10 mL volumetric flask, and dilute to volume with water. • 4. pH=6.0 buffer (50 mM citrate) Weigh 11.04 mg citric acid and 130.2 mg trisodium citrate into a 10 mL volumetric flask, and dilute to volume with water. • 5. pH=6.0 buffer (50 mM phosphate) Weigh 8.7 mg Na2HPO4 and 52.6 mg NaH2PO4 into a 10 mL volumetric flask, and dilute to volume with water. • 6. pH=7.0 buffer (50 mM phosphate) Weigh 23.47 mg Na2HPO4 and 43.34 mg NaH2PO4into a 10 mL volumetric flask, and dilute to volume with water. • 7. pH=8.0 buffer (50 mM phosphate) Weigh 31.64 mg Na2HPO4 and 67.18 mg NaH2PO4into a 10 mL volumetric flask, and dilute to volume with water.

[3] = Equilibrium solubility in pH buffers (3.0-8.0), 20% captisol and water; details: 24 hrs; for S: solubility: RT
Protocol: Additional solids were added into the sample to generate suspension if clear solution obtained. The suspension was equilibrated via stirring (1000 rpm). The suspension was centrifuged to obtain precipitate and supernatants.
Solubility and pH were tested for the supernatants after filtration, and isolated precipitate was tested by XRPD.
as §1

Grinding stability = details: ~30 mg ground manually in a mortar for about 5 minutes
[4] = Approximate solubility at RT; details: CHCl3, RT, solvent for freeform isolation
Protocol: Four freeform isolation experiments were performed in different solvent with different acids. Solids were obtained in DCM/HCl and CHCl3/HCl system.
Approximately 2 mg solids were added into a 3-mL glass vial. Solvents in the following table were then added stepwise (50-50-200-700[…] for each step) into the vials and stirred until the solids were dissolved or a total volume of 1 mL was reached. The solubility results were used to guide the solvent selection in polymorph formation.

[5] = pH = 4.0 buffer (50 mM citrate)
[6] = pH = 4.0 buffer (50 mM citrate), RT
[7] = pH = 5.0 buffer (50 mM citrate)
[8] = pH = 5.0 buffer (50 mM citrate), RT
[9] = pH = 6.0 buffer (50 mM citrate)
[10] = pH = 6.0 buffer (50 mM citrate), RT
[11] = pH = 6.0 buffer (50 mM phosphate)
[12] = pH = 6.0 buffer (50 mM phosphate), RT
[13] = pH = 3.0 buffer (50 mM HCl + KCl)
[14] = pH = 7.0 buffer (50 mM phosphate)
[15] = pH = 8.0 buffer (50 mM phosphate)

CC(=O)NCC1CCN(Cc2cc(Oc3ccc(N4CCN(CCC(=O)O)CC4)nc3)nc(-c3cc(Cl)cc(Cl)c3)c2)CC1 [Fumarate Type A]
Moisture Uptake (DVS) ([1]; from 30% RH to 80% RH): 2.5 (from 30% RH to 80% RH) | form change after DVS test (XRPD) [1]: crystallinity of fumarate Type A decreased | Area % (purity of supernatant) [2, 5]: 99.3 Area % | FC: form change (XRPD of precipitate) [2, 5]: 4 (3/4/6/7/8: new Form 3/4/6/7/8) | pH (final, after adjustment where adjusted) [2, 5]: 4.0 | S: solubility [2, 6]: 3040 µg/mL | Area % (purity of supernatant) [2, 7]: 99.4 Area % | FC: form change (XRPD of precipitate) [2, 7]: 4 (3/4/6/7/8: new Form 3/4/6/7/8) | pH (final, after adjustment where adjusted) [2, 7]: 4.9* | pH before adjustment (in brackets) [2, 7]: (4.1) | S: solubility [2, 8]: 19300 µg/mL | Area % (purity of supernatant) [2, 9]: 98.6 Area % | FC: form change (XRPD of precipitate) [2, 9]: 7 (3/4/6/7/8: new Form 3/4/6/7/8) | pH (final, after adjustment where adjusted) [2, 9]: 6.1* | pH before adjustment (in brackets) [2, 9]: (5.0) | S: solubility [2, 10]: 240 µg/mL | Area % (purity of supernatant) [2, 11]: 95.6 Area % | pH (final, after adjustment where adjusted) [2, 11]: 6.2* | pH before adjustment (in brackets) [2, 11]: (4.6) | S: solubility [2, 12]: 90 µg/mL | pH of supernatant (final pH) ([3]; 20% Captisol (pH = 5.0, w/v)): 4.3 | S: solubility ([3]; 20% Captisol (pH = 5.0, w/v)): 29.6 mg/mL | FC: form change (XRPD of precipitate) ([3]; H2O): 4 (1/2/3/4/5: new Form 1/2/3/4/5) | pH of supernatant (final pH) ([3]; H2O): 3.8 | S: solubility ([3]; H2O): 1.85 mg/mL | FC: form change (XRPD of precipitate) [3, 13]: 5 (1/2/3/4/5: new Form 1/2/3/4/5) | pH of supernatant (final pH) [3, 13]: 3.5 | S: solubility [3, 13]: 0.65 mg/mL | FC: form change (XRPD of precipitate) [3, 5]: 4 (1/2/3/4/5: new Form 1/2/3/4/5) | pH of supernatant (final pH) [3, 5]: 4.1 | S: solubility [3, 5]: 3.45* mg/mL | FC: form change (XRPD of precipitate) [3, 7]: 4 (1/2/3/4/5: new Form 1/2/3/4/5) | pH of supernatant (final pH) [3, 7]: 4.8 | S: solubility [3, 7]: 7.79 mg/mL | FC: form change (XRPD of precipitate) [3, 9]: 4 (1/2/3/4/5: new Form 1/2/3/4/5) | pH of supernatant (final pH) [3, 9]: 5.1 | S: solubility [3, 9]: 20.6 mg/mL | pH of supernatant (final pH) [3, 14]: 6.6 | S: solubility [3, 14]: 0.05 mg/mL | pH of supernatant (final pH) [3, 15]: 7.2 | S: solubility [3, 15]: 0.02 mg/mL | crystallinity after grinding (XRPD) (Grinding stability): decreased after grinding

CC(=O)NCC1CCN(Cc2cc(Oc3ccc(N4CCN(CCC(=O)O)CC4)nc3)nc(-c3cc(Cl)cc(Cl)c3)c2)CC1 [HCl salt Type F]
Moisture Uptake (DVS) ([1]; from 20% RH to 80% RH): 1.4 (from 20% RH to 80% RH) | form change after DVS test (XRPD) [1]: No form change | solubility at 24 h ([2]; 50 mM pH 4.0-6.0 buffers, pH 4, aqueous buffer, thermodynamic from solid, 50 mM pH 4.0-6.0 buffers with pH adjustment, RT, read-out: solubility in pH buffers (overall bound)): < 6800 µg/mL | Area % (purity of supernatant) [2, 5]: 99.0 Area % | FC: form change (XRPD of precipitate) [2, 5]: Low (Low; low crystallinity) | pH (final, after adjustment where adjusted) [2, 5]: 4.0 | S: solubility [2, 6]: 1520 µg/mL | Area % (purity of supernatant) [2, 7]: 99.6 Area % | FC: form change (XRPD of precipitate) [2, 7]: Low (Low; low crystallinity) | pH (final, after adjustment where adjusted) [2, 7]: 4.9 | S: solubility [2, 8]: 2320 µg/mL | Area % (purity of supernatant) [2, 9]: 99.0 Area % | FC: form change (XRPD of precipitate) [2, 9]: 8 (3/4/6/7/8: new Form 3/4/6/7/8) | pH (final, after adjustment where adjusted) [2, 9]: 5.7 | S: solubility [2, 10]: 1150 µg/mL | Area % (purity of supernatant) [2, 11]: 98.9 Area % | FC: form change (XRPD of precipitate) [2, 11]: Low (Low; low crystallinity) | pH (final, after adjustment where adjusted) [2, 11]: 5.9* | pH before adjustment (in brackets) [2, 11]: (3.9) | S: solubility [2, 12]: 430 µg/mL | solubility at 24 h ([3]; 50 mM pH buffers, pH 3.0-8.0, 21 °C, pH 3, aqueous buffer, thermodynamic from solid, 50 mM pH buffers pH 3.0-8.0, RT, read-out: solubility in pH buffers (overall bound)): < 8000 µg/mL | pH of supernatant (final pH) ([3]; 20% Captisol (pH = 5.0, w/v)): 3.5 | S: solubility ([3]; 20% Captisol (pH = 5.0, w/v)): >48.0^1 mg/mL | FC: form change (XRPD of precipitate) ([3]; H2O): 5 (1/2/3/4/5: new Form 1/2/3/4/5) | pH of supernatant (final pH) ([3]; H2O): 2.4 | S: solubility ([3]; H2O): 4.24 mg/mL | FC: form change (XRPD of precipitate) [3, 13]: 5 (1/2/3/4/5: new Form 1/2/3/4/5) | pH of supernatant (final pH) [3, 13]: 2.7 | S: solubility [3, 13]: 2.77 mg/mL | FC: form change (XRPD of precipitate) [3, 5]: Low (Low: low crystallinity) | pH of supernatant (final pH) [3, 5]: 3.9 | S: solubility [3, 5]: 1.12 mg/mL | FC: form change (XRPD of precipitate) [3, 7]: Low (Low: low crystallinity) | pH of supernatant (final pH) [3, 7]: 5.0 | S: solubility [3, 7]: 2.64 mg/mL | FC: form change (XRPD of precipitate) [3, 9]: A^ | pH of supernatant (final pH) [3, 9]: 5.8 | S: solubility [3, 9]: 0.62 mg/mL | FC: form change (XRPD of precipitate) [3, 14]: A^+ | pH of supernatant (final pH) [3, 14]: 6.5 | S: solubility [3, 14]: 0.06 mg/mL | FC: form change (XRPD of precipitate) [3, 15]: A^+ | pH of supernatant (final pH) [3, 15]: 7.2 | S: solubility [3, 15]: 0.02 mg/mL | crystallinity after grinding (XRPD) (Grinding stability): decreased after grinding

CC(=O)NCC1CCN(Cc2cc(Oc3ccc(N4CCN(CCC(=O)O)CC4)nc3)nc(-c3cc(Cl)cc(Cl)c3)c2)CC1 [starting material]
Moisture Uptake (DVS) ([1]; from 10% RH to 80% RH): 0.7% | form change after DVS test (XRPD) [1]: no form change | solubility [4]: S > 50.5 mg/mL
